Assay results reported in patent publication US20230066946A1, “1,5-DIPHENYLPYRAZOLYL-3-OXYALKYL ACIDS AND 1-PHENYL-5-THIENYLPYRAZOLYL-3-OXYALKYL ACIDS AND THE USE THEREOF FOR CONTROL OF UNWANTED PLANT GROWTH” (Bayer Aktiengesellschaft, priority 2019, published 2023).

Legend:
AVEFA = assay: Post-emergence herbicidal action against AVEFA; format: in vivo, Avena fatua; conditions: 1280 g/ha, post-emergence at one-leaf stage, rated visually after about 3 weeks vs untreated controls
Method: (§1) [table] Seeds of mono- and dicotyledonous weed plants are placed in plastic pots in sandy loam soil (twin sowing with one species each of mono- or dicotyledonous weed plants per pot), covered with soil and cultivated in a greenhouse under controlled growth conditions. 2 to 3 weeks after sowing, the test plants are treated at the one-leaf stage. The compounds of the invention, formulated in the form of wettable powders (WP) or as emulsion concentrates (EC), are applied to the green parts of the plants as aqueous suspension or emulsion with addition of 0.5% additive at a water application rate equivalent to 600 litres per hectare. After the test plants have been kept in the greenhouse under optimum growth conditions for about 3 weeks, the activity of the preparations is rated visually in comparison to untreated controls. For example, 100% activity=the plants have died, 0% activity=like control plants. Tables 5.1-5.16 below show the effects of selected compounds of the general formula (I) according to Tables 1 to 3 on various harmful plants at an application rate corresponding to 1280 or 320 g/ha, which have been obtained by the aforementioned experimental method.

AMARE [1] = assay: Post-emergence herbicidal action against AMARE; format: in vivo, Amaranthus retroflexus; conditions: visual rating about 3 weeks after treatment
Procedure, shortened: (§2)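 Applied post-emergence at 1280 or 320 g/ha to one-leaf-stage weeds grown in sandy loam, using WP or EC formulations in water (600 litres per hectare, 0.5% additive). Efficacy is scored visually relative to untreated plants about 3 weeks later, 0% meaning no effect and 100% plant death.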

SETVI [2] = assay: Post-emergence herbicidal action against SETVI; format: in vivo, Setaria viridis; conditions: 1280 g/ha, post-emergence at one-leaf stage, rated visually after about 3 weeks vs untreated controls
Procedure, shortened: as §2

CYPES = assay: Pre-emergence herbicidal action against CYPES; format: in vivo, Cyperus esculentus; conditions: scored visually after about 3 weeks vs untreated controls, 100% = plants have died, 0% = like control plants
Description: Seeds of mono- and dicotyledonous weed plants are placed in plastic pots in sandy loam soil (doubly sown with one species each of mono- or dicotyledonous weed plants per pot) and covered with soil. The compounds of the invention, formulated in the form of wettable powders (WP) or as emulsion concentrates (EC), are then applied onto the surface of the covering soil as aqueous suspension or emulsion with addition of 0.5% additive at a water application rate equivalent to 600 litres per hectare. After the treatment, the pots are placed in a greenhouse and kept under good growth conditions for the trial plants. After about 3 weeks, the effect of the preparations is scored visually in comparison with untreated controls as percentages. For example, 100% activity=the plants have died, 0% activity=like control plants. [table] Tables 4.1-4.15 below show the effects of selected compounds of the general formula (I) according to Tables 1 to 3 on various harmful plants at an application rate corresponding to 1280 or 320 g/ha, which have been obtained by the aforementioned experimental method.

AMARE [3] = assay: Pre-emergence herbicidal action against AMARE; format: in vivo, Amaranthus retroflexus; conditions: scored visually after about 3 weeks vs untreated controls; for Pre-emergence action at 320 g/ha against AMARE in %: 100% = plants have died, 0% = like control plants; for Pre-emergence action against AMARE in %: 1280 g/ha
Procedure, shortened: (§3)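 Greenhouse pot test on sown, soil-covered weed seeds; spray of WP or EC formulation at 1280 or 320 g/ha onto covering soil. Effect rated visually after about 3 weeks (0% = like control, 100% = dead).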

PHBPU = assay: Post-emergence herbicidal action against PHBPU; format: in vivo, Pharbitis purpurea; conditions: 320 g/ha, visual rating about 3 weeks after treatment
Procedure, shortened: as §2

VIOTR [4] = assay: Post-emergence herbicidal action against VIOTR; format: in vivo, Viola tricolor; conditions: 320 g/ha, visual rating about 3 weeks after treatment
Procedure, shortened: as §2

STEME = assay: Post-emergence herbicidal action against STEME; format: in vivo, Stellaria media; conditions: visual rating about 3 weeks after treatment
Procedure, shortened: as §2

MATIN [5] = assay: Pre-emergence herbicidal action against MATIN; format: in vivo, Matricaria inodora; conditions: 1280 g/ha, scored visually after about 3 weeks vs untreated controls
Procedure, shortened: as §3

SETVI [6] = assay: Pre-emergence herbicidal action against SETVI; format: in vivo, Setaria viridis; conditions: 1280 g/ha, scored visually after about 3 weeks vs untreated controls
Procedure, shortened: as §3

MATIN [7] = assay: Post-emergence herbicidal action against MATIN; format: in vivo, Matricaria inodora; conditions: visual rating about 3 weeks after treatment
Procedure, shortened: as §2

VERPE [8] = assay: Pre-emergence herbicidal action against VERPE; format: in vivo, Veronica persica; conditions: 320 g/ha, scored visually after about 3 weeks vs untreated controls
Procedure, shortened: as §3

VERPE [9] = assay: Post-emergence herbicidal action against VERPE; format: in vivo, Veronica persica; conditions: 320 g/ha, visual rating about 3 weeks after treatment
Procedure, shortened: as §2

ALOMY = assay: Post-emergence herbicidal action against ALOMY; format: in vivo, Alopecurus myosuroides; conditions: 1280 g/ha, post-emergence at one-leaf stage, rated visually after about 3 weeks vs untreated controls
Method: as §1

VIOTR [10] = assay: Pre-emergence herbicidal action against VIOTR; format: in vivo, Viola tricolor; conditions: 1280 g/ha, scored visually after about 3 weeks vs untreated controls
Procedure, shortened: as §3

POLCO = assay: Post-emergence herbicidal action against POLCO; format: in vivo, Polygonum convolvulus; conditions: 320 g/ha, visual rating about 3 weeks after treatment
Procedure, shortened: as §2

| SMILES | Post-emergence action against AVEFA in % (AVEFA) [%] | Post-emergence action against AMARE in % (AMARE [1]; 1280 g/ha) [%] | Post-emergence action against SETVI in % (SETVI [2]) [%] | Post-emergence action against AMARE in % (AMARE [1]; 320 g/ha) [%] | Pre-emergence action at 1280 g/ha against CYPES in % (CYPES) [%] | Pre-emergence action at 320 g/ha against AMARE in % (AMARE [3]) [%] | Pre-emergence action against AMARE in % (AMARE [3]) [%] | Post-emergence action against PHBPU in % (PHBPU) [%] | Post-emergence action against VIOTR in % (VIOTR [4]) [%] | Post-emergence action against STEME in % (STEME; 320 g/ha) [%] | Post-emergence action against STEME in % (STEME; 1280 g/ha) [%] | Pre-emergence action against MATIN in % (MATIN [5]) [%] | Pre-emergence action against SETVI in % (SETVI [6]) [%] | Post-emergence action against MATIN in % (MATIN [7]; 1280 g/ha) [%] | Pre-emergence action against VERPE in % (VERPE [8]) [%] | Post-emergence action against VERPE in % (VERPE [9]) [%] | Post-emergence action against MATIN in % (MATIN [7]; 320 g/ha) [%] | Post-emergence action against ALOMY in % (ALOMY) [%] | Pre-emergence action against VIOTR in % (VIOTR [10]) [%] | Post-emergence action against POLCO in % (POLCO) [%] |
| --- | --- | --- | --- | --- | --- | --- | --- | --- | --- | --- | --- | --- | --- | --- | --- | --- | --- | --- | --- | --- |
| COC(=O)COc1nn(-c2ccc(F)cc2)c(-c2ccc(F)cc2)c1C#N [I-009] | 80 | 80 | 80 | – | – | – | – | – | – | – | – | – | – | – | – | – | – | – | – | – |
| COC(=O)COc1nn(-c2cccc(F)c2)c(-c2ccc(F)cc2)c1C#N [I-012] | 80 | 80 | – | 80 | 100 | 100 | 100 | 80 | 80 | 80 | 80 | 100 | – | – | – | – | – | – | – | – |
| COC(=O)COc1nn(-c2ccc(F)cc2)c(-c2ccc(F)c(F)c2)c1Cl [I-025] | 80 | 80 | – | 80 | – | 90 | 90 | – | 80 | – | – | – | 80 | 80 | 80 | 80 | – | – | – | – |
| COC(=O)COc1nn(-c2ccc(F)cc2)c(-c2ccc(F)c(F)c2)c1C#N [I-036] | 80 | – | – | – | – | – | 80 | 80 | 80 | 80 | 80 | – | 80 | 80 | – | 80 | 80 | – | – | – |
| COC(=O)COc1nn(-c2cccc(Cl)c2)c(-c2ccc(F)c(F)c2)c1C#N [I-051] | 80 | – | – | – | – | – | 90 | 80 | 90 | – | 80 | – | – | 90 | – | 80 | 90 | 80 | 90 | 80 |
